Experiments:
Phakopsora Pachyrhizi = test: Fungicidal activity against Phakopsora pachyrhizi / soybean / leaf disc preventative (Asian soybean rust); format: in vivo; details: foliar, 200 ppm in the applied formulation, soybean leaf disks, compared to untreated control leaf disks, read-out: disease control
Method in brief: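 Scored 12 to 14 days post-application as percent control relative to untreated check discs, rust spores were sprayed under the disc one day after compound treatment. Incubation: 20°C, 75% rh, first 24–36 h in darkness, then 12 h daily light; discs kept on water agar.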

[1] = system: Puccinia recondita f. Sp. Tritici; test: Fungicidal activity against Puccinia recondita f. sp. tritici / wheat / leaf disc curative (brown rust); format: in vivo; details: foliar, 24 h, 200 ppm in the applied formulation, wheat leaf segments, curative (applied 1 day after inoculation), compared to untreated control leaf disks, read-out: disease control
Method in brief: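 Scoring is percent disease control relative to untreated segments, made 6 to 8 days after treatment. Wheat (cv. Kanzler) leaf segments received the formulated, water-diluted compound one day post-inoculation with spores, having been kept dark at 19° C and 75% RH, then incubated under 12 h light/12 h dark at the same temperature and humidity.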

[2] = system: Glomerella lagenarium (Colletotrichum lagenarium); test: Fungicidal activity against Glomerella lagenarium (Colletotrichum lagenarium) liquid culture / cucumber / preventative (anthracnose); format: cell-based; details: Colletotrichum orbiculare; 20 ppm in the applied formulation; liquid culture (PDB), growth inhibition measured photometrically after 3 to 4 days; compared to untreated control; read-out: disease control
Method in brief: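 Percent activity against the untreated check was derived from photometric growth measurements made 2 to 7 days after conidia in potato dextrose broth were combined with compound at 20 ppm. Cultures were kept dark at 24 °C and 96% humidity.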

[3] = system: Puccinia recondita f. Sp. Tritici; test: Fungicidal activity against Puccinia recondita f. sp. tritici / wheat / leaf disc preventative (brown rust); format: in vivo; details: foliar, 200 ppm in the applied formulation, wheat leaf segments, preventative, compared to untreated control leaf disks, read-out: disease control
Method in brief: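 Percent disease control relative to untreated check segments is scored once disease develops, 7 to 9 days after application. Wheat cv. Kanzler segments receive compound spray (200 ppm in formulation) one day before spore inoculation, then sit at 19° C. and 75% rh under 12 h light/12 h dark.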

COCCC(=O)N(Cc1ccc(-c2noc(C(F)(F)F)n2)cc1)C1COC1 [Compound 1.741, 3-methoxy-N-(oxetan-3-yl)-N-[[4-[5-(trifluoromethyl)-1,2,4-oxadiazol-3-yl]phenyl]methyl]-propanamide]
≥ 80%: pest or weed control at 200 ppm (Phakopsora Pachyrhizi) | pest or weed control at 200 ppm [1] | inhibition of growth at 20 ppm [2] | pest or weed control at 200 ppm [3]

O=C(C1CCC1)N(Cc1ccc(-c2noc(C(F)(F)F)n2)cc1)C1COC1 [Compound 1.742, N-(oxetan-3-yl)-N-[[4-[5-(trifluoromethyl)-1,2,4-oxadiazol-3-yl]phenyl]methyl]-cyclobutane-carboxamide]
≥ 80%: pest or weed control at 200 ppm (Phakopsora Pachyrhizi) | pest or weed control at 200 ppm [1] | inhibition of growth at 20 ppm [2] | pest or weed control at 200 ppm [3]

CC1(C(=O)N(Cc2ccc(-c3noc(C(F)(F)F)n3)cc2)C2COC2)CC1 [Compound 1.743, 1-methyl-N-(oxetan-3-yl)-N-[[4-[5-(trifluoromethyl)-1,2,4-oxadiazol-3-yl]phenyl]methyl]-cyclopropane-carboxamide]
≥ 80%: pest or weed control at 200 ppm (Phakopsora Pachyrhizi) | pest or weed control at 200 ppm [1] | inhibition of growth at 20 ppm [2] | pest or weed control at 200 ppm [3]

CCC(COC)C(=O)N(Cc1ccc(-c2noc(C(F)(F)F)n2)cc1)C1COC1 (stereo not shown) [Compound 1.745, 2-(methoxymethyl)-N-(oxetan-3-yl)-N-[[4-[5-(trifluoromethyl)-1,2,4-oxadiazol-3-yl]phenyl]methyl]-butanamide]
≥ 80%: pest or weed control at 200 ppm (Phakopsora Pachyrhizi) | pest or weed control at 200 ppm [1] | inhibition of growth at 20 ppm [2] | pest or weed control at 200 ppm [3]

N#CC1(C(=O)N(Cc2ccc(-c3noc(C(F)(F)F)n3)cc2)C2COC2)CC1 [Compound 1.749, 1-cyano-N-(oxetan-3-yl)-N-[[4-[5-(trifluoromethyl)-1,2,4-oxadiazol-3-yl]phenyl]methyl]-cyclopropane-carboxamide]
≥ 80%: pest or weed control at 200 ppm (Phakopsora Pachyrhizi) | pest or weed control at 200 ppm [1] | inhibition of growth at 20 ppm [2] | pest or weed control at 200 ppm [3]

O=C(CC(F)(F)F)N(Cc1ccc(-c2noc(C(F)(F)F)n2)cc1)C1COC1 [Compound 1.751, 3,3,3-trifluoro-N-(oxetan-3-yl)-N-[[4-[5-(trifluoromethyl)-1,2,4-oxadiazol-3-yl]phenyl]methyl]-propanamide]
≥ 80%: pest or weed control at 200 ppm (Phakopsora Pachyrhizi) | pest or weed control at 200 ppm [1] | inhibition of growth at 20 ppm [2] | pest or weed control at 200 ppm [3]

CC(C)C(=O)N(O)Cc1ccc(-c2noc(C(F)(F)F)n2)cc1 [Compound 1.752, N-hydroxy-2-methyl-N-[[4-[5-(trifluoromethyl)-1,2,4-oxadiazol-3-yl]phenyl]methyl]-propanamide]
≥ 80%: pest or weed control at 200 ppm (Phakopsora Pachyrhizi) | pest or weed control at 200 ppm [1] | inhibition of growth at 20 ppm [2] | pest or weed control at 200 ppm [3]

O=C(C1CC1(F)F)N(O)Cc1ccc(-c2noc(C(F)(F)F)n2)cc1 (stereo not shown) [Compound 1.753, 2,2-difluoroN-hydroxy-N-[[4-[5-(trifluoromethyl)-1,2,4-oxadiazol-3-yl]phenyl]methyl]-cyclopropane-carboxamide]
≥ 80%: pest or weed control at 200 ppm (Phakopsora Pachyrhizi) | pest or weed control at 200 ppm [1] | inhibition of growth at 20 ppm [2] | pest or weed control at 200 ppm [3]

O=C(C1CCOC1)N(O)Cc1ccc(-c2noc(C(F)(F)F)n2)cc1 (stereo not shown) [Compound 1.756, N-hydroxy-N-[[4-[5-(trifluoromethyl)-1,2,4-oxadiazol-3-yl]phenyl]methyl]-tetrahydrofuran-3-carboxamide]
≥ 80%: pest or weed control at 200 ppm (Phakopsora Pachyrhizi) | pest or weed control at 200 ppm [1] | inhibition of growth at 20 ppm [2] | pest or weed control at 200 ppm [3]

O=C(ON(Cc1ccc(-c2noc(C(F)(F)F)n2)cc1)C(=O)C1CCOC1)C1CCOC1 (stereo not shown) [Compound 1.757, [tetrahydrofuran-3-carbonyl-[[4-[5-(trifluoromethyl)-1,2,4-oxadiazol-3-yl]phenyl]methyl]-amino] tetrahydrofuran-3-carboxylate]
≥ 80%: pest or weed control at 200 ppm (Phakopsora Pachyrhizi) | pest or weed control at 200 ppm [1] | inhibition of growth at 20 ppm [2] | pest or weed control at 200 ppm [3]

COCCC(=O)N(O)Cc1ccc(-c2noc(C(F)(F)F)n2)cc1 [Compound 1.758, N-hydroxy-3-methoxy-N-[[4-[5-(trifluoromethyl)-1,2,4-oxadiazol-3-yl]phenyl]methyl]-propanamide]
≥ 80%: pest or weed control at 200 ppm (Phakopsora Pachyrhizi) | pest or weed control at 200 ppm [1] | inhibition of growth at 20 ppm [2] | pest or weed control at 200 ppm [3]

COCCC(=O)ON(Cc1ccc(-c2noc(C(F)(F)F)n2)cc1)C(=O)CCOC [Compound 1.759, [3-methoxy-propanoyl-[[4-[5-(trifluoromethyl)-1,2,4-oxadiazol-3-yl]phenyl]methyl]-amino] 3-methoxypropanoate]
≥ 80%: pest or weed control at 200 ppm (Phakopsora Pachyrhizi) | pest or weed control at 200 ppm [1] | inhibition of growth at 20 ppm [2] | pest or weed control at 200 ppm [3]

CCC(=O)ON(Cc1ccc(-c2noc(C(F)(F)F)n2)cc1)C(=O)CC [Compound 1.760, [propanoyl-[[4-[5-(trifluoromethyl)-1,2,4-oxadiazol-3-yl)phenyl]methyl]-amino] propanoate]
≥ 80%: pest or weed control at 200 ppm (Phakopsora Pachyrhizi) | pest or weed control at 200 ppm [1] | inhibition of growth at 20 ppm [2] | pest or weed control at 200 ppm [3]

O=C(C1CCC1)N(O)Cc1ccc(-c2noc(C(F)(F)F)n2)cc1 [Compound 1.761, N-hydroxy-N-[[4-[5-(trifluoromethyl)-1,2,4-oxadiazol-3-yl]phenyl]methyl]-cyclobutane-carboxamide]
≥ 80%: pest or weed control at 200 ppm (Phakopsora Pachyrhizi) | pest or weed control at 200 ppm [1] | inhibition of growth at 20 ppm [2] | pest or weed control at 200 ppm [3]

O=C(ON(Cc1ccc(-c2noc(C(F)(F)F)n2)cc1)C(=O)C1CCC1)C1CCC1 [Compound 1.762, [cyclobutane-carbonyl-[[4-[5-(trifluoromethyl)-1,2,4-oxadiazol-3-yl]phenyl]methyl]-amino] cyclobutane-carboxylate]
≥ 80%: pest or weed control at 200 ppm (Phakopsora Pachyrhizi) | pest or weed control at 200 ppm [1] | inhibition of growth at 20 ppm [2] | pest or weed control at 200 ppm [3]

CC1CC1C(=O)N(O)Cc1ccc(-c2noc(C(F)(F)F)n2)cc1 (stereo not shown) [Compound 1.763, N-hydroxy-2-methyl-N-[[4-[5-(trifluoromethyl)-1,2,4-oxadiazol-3-yl]phenyl]methyl]-cyclopropane-carboxamide]
≥ 80%: pest or weed control at 200 ppm (Phakopsora Pachyrhizi) | pest or weed control at 200 ppm [1] | inhibition of growth at 20 ppm [2] | pest or weed control at 200 ppm [3]

CC1(C(=O)N(O)Cc2ccc(-c3noc(C(F)(F)F)n3)cc2)CC1 [Compound 1.764, N-hydroxy-1-methyl-N-[[4-[5-(trifluoromethyl)-1,2,4-oxadiazol-3-yl]phenyl]methyl]-cyclopropane-carboxamide]
≥ 80%: pest or weed control at 200 ppm (Phakopsora Pachyrhizi) | pest or weed control at 200 ppm [1] | inhibition of growth at 20 ppm [2] | pest or weed control at 200 ppm [3]

CCC(C)C(=O)N(O)Cc1ccc(-c2noc(C(F)(F)F)n2)cc1 (stereo not shown) [Compound 1.765, N-hydroxy-2-methyl-N-[[4-[5-(trifluoromethyl)-1,2,4-oxadiazol-3-yl]phenyl]methyl]-butanamide]
≥ 80%: pest or weed control at 200 ppm (Phakopsora Pachyrhizi) | pest or weed control at 200 ppm [1] | inhibition of growth at 20 ppm [2] | pest or weed control at 200 ppm [3]

CC1(C(=O)N(O)Cc2ccc(-c3noc(C(F)(F)F)n3)cc2)COC1 [Compound 1.766, N-hyd roxy-3-methyl-N-[[4-[5-(trifluoromethyl)-1,2,4-oxadiazol-3-yl]phenyl]methyl]-oxetane-3-c arboxamide]
≥ 80%: pest or weed control at 200 ppm (Phakopsora Pachyrhizi) | pest or weed control at 200 ppm [1] | inhibition of growth at 20 ppm [2] | pest or weed control at 200 ppm [3]

CCC(COC)C(=O)N(O)Cc1ccc(-c2noc(C(F)(F)F)n2)cc1 (stereo not shown) [Compound 1.768, N-hydroxy-2-(methoxymethyl)-N-[[4-[5-(trifluoromethyl)-1,2,4-oxadiazol-3-yl]phenyl]methyl]-butanamide]
≥ 80%: pest or weed control at 200 ppm (Phakopsora Pachyrhizi) | pest or weed control at 200 ppm [1] | inhibition of growth at 20 ppm [2] | pest or weed control at 200 ppm [3]

COCCCC(=O)N(O)Cc1ccc(-c2noc(C(F)(F)F)n2)cc1 [Compound 1.769, N-hydroxy-4-methoxy-N-[[4-[5-(trifluoromethyl)-1,2,4-oxadiazol-3-yl]phenyl]methyl]-butanamide]
≥ 80%: pest or weed control at 200 ppm (Phakopsora Pachyrhizi) | pest or weed control at 200 ppm [1] | inhibition of growth at 20 ppm [2] | pest or weed control at 200 ppm [3]

O=C(C1CCCO1)N(O)Cc1ccc(-c2noc(C(F)(F)F)n2)cc1 (stereo not shown) [Compound 1.770, N-hydroxy-N-[[4-[5-(trifluoromethyl)-1,2,4-oxadiazol-3-yl]phenyl]methyl]-tetrahydrofuran-2-carboxamide]
≥ 80%: pest or weed control at 200 ppm (Phakopsora Pachyrhizi) | pest or weed control at 200 ppm [1] | inhibition of growth at 20 ppm [2] | pest or weed control at 200 ppm [3]

— US11180462B2, “Microbiocidal oxadiazole derivatives” (SYNGENTA PARTICIPATIONS AG, priority 2015, dated 2021)
